Calls of active or inactive are those of the source. The calls are words filed in the database; no cut-off is given here.
Tests used:
Liver [1] = test: Drug metabolism in rat liver microsomes assessed as metabolic rate; assay type: ADME, microsome
Liver [2] = test: Drug metabolism in human liver microsomes assessed as metabolic rate; assay type: ADME, microsome
[3] = Apparent clearance in rat liver microsomes; assay type: ADME, microsome; conditions: read-out: CLH(app)
[4] = Hepatic clearance in human microsomes; assay type: ADME, microsome; conditions: liver microsomes
[5] = Hepatic clearance in rat liver microsomes; assay type: ADME, microsome
[6] = Half life in rat liver microsomes; assay type: ADME, microsome
Liver [7] = test: Intrinsic clearance in rat liver microsomes; assay type: ADME, microsome
[8] = Hepatic extraction ratio in rat liver microsomes; assay type: ADME, microsome; conditions: read-out: ERH
[9] = Apparent clearance in human microsomes; assay type: ADME, microsome; conditions: liver microsomes, read-out: CLH(app)
Liver [10] = test: Intrinsic clearance in human liver microsomes; assay type: ADME, microsome
[11] = Hepatic extraction ratio in human microsomes; assay type: ADME, microsome; conditions: liver microsomes, read-out: ERH
[12] = Half life in human microsomes; assay type: ADME, microsome; conditions: liver microsomes
[13] = target: cGMP-specific 3',5'-cyclic phosphodiesterase (Homo sapiens, UniProt O76074)
[14] = Oral bioavailability in Sprague-Dawley rat by LC-MS/MS analysis; assay type: ADME, organism-based; conditions: in vivo
Rattus norvegicus [15] = organism: Rattus norvegicus; conditions: Wistar, 10 mg/kg
Rattus norvegicus [16] = test: Reduction in MCT-induced increase in mean pulmonary arterial pressure in Wistar rat model of monocrotaline pulmonary arterial hypertension assessed as mean pulmonary arterial pressure at 10 mg/kg, po for 3 weeks (reference value: 32.74 mmHg); assay type: functional
[17] = Oral bioavailability in rat; assay type: ADME, organism-based; conditions: in vivo

| Structure (SMILES) | IC50 [13] [nM] | other results |
| --- | --- | --- |
| Cc1ncc2n1-c1ccc(Cl)cc1C(c1ccccc1F)=NC2 [MIDAZOLAM] | – | K (Liver [1]): 0.2877; K (Liver [2]): 0.2532; CLint scaled [3]: 1040 mL/min/kg; CLhep predicted [4]: 19.2 mL/min/kg; CLhep predicted [5]: 53.2 mL/min/kg; half-life [6]: 2.4 min; CLH (Liver [7]): 574 µL/min/mg; hepatic extraction ratio [8]: 0.95; CLint scaled [9]: 488 mL/min/kg; CLH (Liver [10]): 506.4 µL/min/mg; hepatic extraction ratio [11]: 0.96; half-life [12]: 2.7 min |
| COc1ncccc1-c1[nH]c(Cc2ccc(O)cc2)c2oc3ccccc3c(=O)c12 | > 100 | – |
| O=c1c2ccccc2oc2c(Cc3ccc(O)cc3)[nH]c(-c3cccnc3O)c12 | > 100 | – |
| O=c1c2ccccc2oc2c(Cc3ccc(O)cc3)[nH]c(-c3ccncn3)c12 | 56 | – |
| Cc1nnc(-c2[nH]c(Cc3ccc(O)cc3)c3oc4ccccc4c(=O)c23)o1 | > 100 | – |
| O=c1c2ccccc2oc2c(Cc3ccc(O)cc3)[nH]c(-c3cccnc3)c12 | 77 | – |
| O=c1c2ccccc2oc2c(Cc3ccc(O)cc3)[nH]c(-c3ccccn3)c12 | 21 | – |
| O=C(c1[nH]c(Cc2ccc(O)cc2)c2oc3ccccc3c(=O)c12)N1CCN(C2CC2)CC1 | > 100 | – |
| O=c1c2ccccc2oc2c(Cc3ccc(O)cc3)[nH]c(-c3ccc(Cl)cn3)c12 | 50 | – |
| O=C(c1[nH]c(Cc2ccc(O)cc2)c2oc3ccccc3c(=O)c12)N1CCOCC1 | > 100 | – |
| O=c1c2ccccc2oc2c(Cc3ccc(O)cc3)[nH]c(-c3ccncc3Cl)c12 | > 100 | – |
| Cc1ccc(-c2[nH]c(Cc3ccc(O)cc3)c3oc4ccccc4c(=O)c23)cc1 | > 100 | – |
| COC(=O)c1[nH]c(Cc2ccc(O)cc2)c2oc3ccccc3c(=O)c12 | 31 | – |
| O=c1c2ccccc2oc2c(Cc3ccc(O)cc3)[nH]c(-c3cc(Cl)ccn3)c12 | > 100 | – |
| CC(C)N1CCN(C(=O)c2[nH]c(Cc3ccc(O)cc3)c3oc4ccccc4c(=O)c23)CC1 | > 100 | – |
| O=c1c2ccccc2oc2c(Cc3ccc(O)cc3)[nH]c(-c3nccs3)c12 | 5.4 | bioavailability [14]: < 10% |
| O=c1c2ccccc2oc2c(Cc3ccc(O)cc3)[nH]c(-c3ccccc3F)c12 | 16 | – |
| O=c1c2ccccc2oc2c(Cc3ccc(C(F)(F)F)cc3)[nH]c(-c3nccs3)c12 | 30 | – |
| O=c1c2ccccc2oc2c(Cc3ccc(O)cc3)[nH]c(-c3cccnc3Cl)c12 | > 100 | – |
| O=c1c2ccccc2oc2c(Cc3ccc(O)cc3)[nH]c(-c3ccncc3)c12 | > 100 | – |
| CCCc1nn(C)c2c(=O)[nH]c(-c3cc(S(=O)(=O)N4CCN(C)CC4)ccc3OCC)nc12.O=C(O)CC(O)(CC(=O)O)C(=O)O [SILDENAFIL CITRATE] | – | inhibition (Rattus norvegicus [15]): Active; Activity (Rattus norvegicus [16]): 22.13 mmHg; bioavailability [17]: 41% |
| CC(C)(C)Oc1ccc(Cc2[nH]c(-c3nccs3)c3c(=O)c4ccccc4oc23)cc1 | > 100 | – |
